# Experimental data published in US20080031982A1 (Metaproteomics, LLC, priority 2006, published 2008).
# Experiments:
# Assay in all cases: KinaseProfiler Assay
# [1] = target: CDK5/p25 (Homo sapiens, UniProt Q00535)
# [2] = target: T1, EphA8 (Homo sapiens, UniProt P29322)
# T1 sequence (P29322 28-1005): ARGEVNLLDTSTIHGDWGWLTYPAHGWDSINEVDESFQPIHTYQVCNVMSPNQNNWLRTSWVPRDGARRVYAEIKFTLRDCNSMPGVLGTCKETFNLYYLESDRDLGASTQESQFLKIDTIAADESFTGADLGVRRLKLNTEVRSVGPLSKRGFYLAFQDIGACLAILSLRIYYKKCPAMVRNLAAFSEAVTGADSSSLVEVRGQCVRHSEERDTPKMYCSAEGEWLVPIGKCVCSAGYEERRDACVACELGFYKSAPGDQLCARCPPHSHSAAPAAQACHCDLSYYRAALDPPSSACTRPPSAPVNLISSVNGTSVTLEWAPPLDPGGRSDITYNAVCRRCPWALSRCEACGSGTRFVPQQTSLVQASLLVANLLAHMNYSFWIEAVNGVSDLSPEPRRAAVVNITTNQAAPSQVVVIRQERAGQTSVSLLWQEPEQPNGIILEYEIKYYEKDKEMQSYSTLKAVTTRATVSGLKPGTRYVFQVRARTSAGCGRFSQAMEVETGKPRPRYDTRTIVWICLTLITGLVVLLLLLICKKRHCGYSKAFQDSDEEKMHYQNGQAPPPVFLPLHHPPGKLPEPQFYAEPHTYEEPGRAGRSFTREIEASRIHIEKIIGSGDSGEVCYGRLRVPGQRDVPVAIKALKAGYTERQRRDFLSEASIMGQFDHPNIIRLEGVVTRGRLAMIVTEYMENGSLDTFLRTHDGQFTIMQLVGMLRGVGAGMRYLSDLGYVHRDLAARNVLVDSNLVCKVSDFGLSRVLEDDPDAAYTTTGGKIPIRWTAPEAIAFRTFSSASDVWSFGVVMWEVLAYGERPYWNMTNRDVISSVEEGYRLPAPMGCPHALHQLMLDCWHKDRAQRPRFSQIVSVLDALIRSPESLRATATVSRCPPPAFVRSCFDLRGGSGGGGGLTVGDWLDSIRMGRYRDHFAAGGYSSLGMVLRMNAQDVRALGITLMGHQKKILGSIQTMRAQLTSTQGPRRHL
# [3] = target: Fes (Homo sapiens, UniProt P07332)
# Chain of Fes (P07332 whole entry): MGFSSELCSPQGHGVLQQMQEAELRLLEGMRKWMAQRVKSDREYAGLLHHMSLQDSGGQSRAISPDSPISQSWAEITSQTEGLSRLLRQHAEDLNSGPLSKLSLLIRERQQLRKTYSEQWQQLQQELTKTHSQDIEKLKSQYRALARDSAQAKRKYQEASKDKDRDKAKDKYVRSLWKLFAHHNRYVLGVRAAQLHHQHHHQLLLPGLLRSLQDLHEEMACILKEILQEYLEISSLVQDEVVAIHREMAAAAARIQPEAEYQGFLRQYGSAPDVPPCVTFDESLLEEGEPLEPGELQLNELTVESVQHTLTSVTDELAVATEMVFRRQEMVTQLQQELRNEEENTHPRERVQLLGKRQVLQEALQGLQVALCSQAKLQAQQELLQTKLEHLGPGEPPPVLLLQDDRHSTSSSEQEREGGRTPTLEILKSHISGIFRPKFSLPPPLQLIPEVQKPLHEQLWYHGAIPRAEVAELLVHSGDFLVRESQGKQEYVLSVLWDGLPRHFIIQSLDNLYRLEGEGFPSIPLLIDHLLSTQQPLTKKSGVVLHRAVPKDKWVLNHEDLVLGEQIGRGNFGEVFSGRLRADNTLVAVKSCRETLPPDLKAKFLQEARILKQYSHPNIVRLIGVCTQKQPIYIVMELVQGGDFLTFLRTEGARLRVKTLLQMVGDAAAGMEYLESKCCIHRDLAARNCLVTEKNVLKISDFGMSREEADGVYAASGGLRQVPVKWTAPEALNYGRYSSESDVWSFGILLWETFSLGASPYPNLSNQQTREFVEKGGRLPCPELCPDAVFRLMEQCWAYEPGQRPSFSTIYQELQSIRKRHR
# [4] = system: Lyn
# [5] = target: MINK (Homo sapiens, UniProt Q8N4C8)
# Chain of MINK (Q8N4C8 whole entry): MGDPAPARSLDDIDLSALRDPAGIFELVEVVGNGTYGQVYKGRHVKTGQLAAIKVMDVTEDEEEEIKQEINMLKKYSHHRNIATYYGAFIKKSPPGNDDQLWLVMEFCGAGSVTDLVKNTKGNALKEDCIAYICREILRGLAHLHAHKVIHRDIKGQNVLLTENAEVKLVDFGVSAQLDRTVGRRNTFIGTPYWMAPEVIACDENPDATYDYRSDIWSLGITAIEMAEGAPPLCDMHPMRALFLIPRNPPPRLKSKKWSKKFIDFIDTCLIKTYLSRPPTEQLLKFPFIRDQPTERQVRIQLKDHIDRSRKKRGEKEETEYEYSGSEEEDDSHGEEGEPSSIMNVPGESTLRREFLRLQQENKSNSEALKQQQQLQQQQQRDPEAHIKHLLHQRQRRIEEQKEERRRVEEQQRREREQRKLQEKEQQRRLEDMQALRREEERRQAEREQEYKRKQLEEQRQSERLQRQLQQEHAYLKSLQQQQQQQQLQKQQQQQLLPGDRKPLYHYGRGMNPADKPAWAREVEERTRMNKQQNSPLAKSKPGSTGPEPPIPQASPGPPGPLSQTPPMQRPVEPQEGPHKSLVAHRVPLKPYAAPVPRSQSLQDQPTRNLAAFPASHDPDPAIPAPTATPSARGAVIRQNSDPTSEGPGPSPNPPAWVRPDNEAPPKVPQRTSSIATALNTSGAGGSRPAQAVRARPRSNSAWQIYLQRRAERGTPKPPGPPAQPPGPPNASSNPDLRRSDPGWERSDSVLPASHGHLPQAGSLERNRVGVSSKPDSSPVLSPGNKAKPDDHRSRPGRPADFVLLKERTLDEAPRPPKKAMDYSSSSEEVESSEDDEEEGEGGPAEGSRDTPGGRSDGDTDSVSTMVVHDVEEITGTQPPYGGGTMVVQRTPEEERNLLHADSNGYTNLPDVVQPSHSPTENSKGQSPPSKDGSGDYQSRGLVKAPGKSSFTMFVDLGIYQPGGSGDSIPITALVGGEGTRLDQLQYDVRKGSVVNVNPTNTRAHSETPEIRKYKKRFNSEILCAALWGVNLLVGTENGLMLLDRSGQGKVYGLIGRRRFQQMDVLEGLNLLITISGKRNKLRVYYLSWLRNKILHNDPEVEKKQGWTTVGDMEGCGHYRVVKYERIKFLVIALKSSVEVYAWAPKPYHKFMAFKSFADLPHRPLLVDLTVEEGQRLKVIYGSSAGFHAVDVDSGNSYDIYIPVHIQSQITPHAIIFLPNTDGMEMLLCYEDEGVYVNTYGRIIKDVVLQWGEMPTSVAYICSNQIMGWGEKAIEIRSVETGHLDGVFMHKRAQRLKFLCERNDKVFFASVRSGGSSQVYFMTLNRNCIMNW
# [6] = target: Pim-2 (Homo sapiens, UniProt Q9P1W9)
# Chain of Pim-2 (Q9P1W9 whole entry): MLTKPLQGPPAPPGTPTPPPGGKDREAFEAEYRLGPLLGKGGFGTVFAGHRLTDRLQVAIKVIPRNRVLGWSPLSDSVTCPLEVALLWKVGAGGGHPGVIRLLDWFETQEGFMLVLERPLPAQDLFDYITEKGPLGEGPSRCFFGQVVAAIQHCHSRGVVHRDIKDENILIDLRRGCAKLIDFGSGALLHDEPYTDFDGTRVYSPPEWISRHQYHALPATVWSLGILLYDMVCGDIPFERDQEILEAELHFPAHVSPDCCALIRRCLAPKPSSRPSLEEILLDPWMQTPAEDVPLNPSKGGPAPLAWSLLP
# [7] = target: Ron (Homo sapiens, UniProt Q04912)
# Chain of Ron (Q04912 25-1400): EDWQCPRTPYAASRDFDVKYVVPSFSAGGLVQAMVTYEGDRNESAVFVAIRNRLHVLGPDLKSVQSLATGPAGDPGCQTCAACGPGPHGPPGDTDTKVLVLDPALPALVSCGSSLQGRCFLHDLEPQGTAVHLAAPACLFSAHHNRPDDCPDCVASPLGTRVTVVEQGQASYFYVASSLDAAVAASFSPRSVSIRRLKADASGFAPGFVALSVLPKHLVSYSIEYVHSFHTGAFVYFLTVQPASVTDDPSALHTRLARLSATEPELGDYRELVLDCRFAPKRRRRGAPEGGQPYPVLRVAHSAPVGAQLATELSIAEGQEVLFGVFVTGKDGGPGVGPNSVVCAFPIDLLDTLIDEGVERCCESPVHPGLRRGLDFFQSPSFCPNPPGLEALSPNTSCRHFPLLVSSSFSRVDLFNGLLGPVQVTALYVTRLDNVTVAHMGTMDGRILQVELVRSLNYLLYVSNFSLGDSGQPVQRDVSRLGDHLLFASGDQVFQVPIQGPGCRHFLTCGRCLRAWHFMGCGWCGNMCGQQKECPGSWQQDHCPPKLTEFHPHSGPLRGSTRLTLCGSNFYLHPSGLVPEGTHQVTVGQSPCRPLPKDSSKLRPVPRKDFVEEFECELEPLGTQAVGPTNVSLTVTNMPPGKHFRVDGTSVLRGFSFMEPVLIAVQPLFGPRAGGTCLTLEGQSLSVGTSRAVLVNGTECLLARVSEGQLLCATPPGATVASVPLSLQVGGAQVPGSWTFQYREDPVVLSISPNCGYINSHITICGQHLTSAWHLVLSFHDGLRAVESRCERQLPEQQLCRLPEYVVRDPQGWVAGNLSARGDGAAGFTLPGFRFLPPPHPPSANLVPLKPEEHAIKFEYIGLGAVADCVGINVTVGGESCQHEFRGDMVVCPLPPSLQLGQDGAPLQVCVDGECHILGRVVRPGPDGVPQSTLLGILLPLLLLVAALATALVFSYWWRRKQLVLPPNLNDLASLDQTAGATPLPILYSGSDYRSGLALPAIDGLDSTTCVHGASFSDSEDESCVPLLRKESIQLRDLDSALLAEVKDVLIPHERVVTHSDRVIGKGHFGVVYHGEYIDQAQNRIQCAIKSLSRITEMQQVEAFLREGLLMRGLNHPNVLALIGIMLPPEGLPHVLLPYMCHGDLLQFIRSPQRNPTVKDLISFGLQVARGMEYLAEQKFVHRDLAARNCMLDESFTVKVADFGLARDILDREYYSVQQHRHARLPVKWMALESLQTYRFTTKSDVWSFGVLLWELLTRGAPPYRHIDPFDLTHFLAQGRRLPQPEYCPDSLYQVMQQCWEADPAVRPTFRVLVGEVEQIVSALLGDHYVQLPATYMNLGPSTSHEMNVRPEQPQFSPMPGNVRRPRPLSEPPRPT
# [8] = target: PAK5 (Homo sapiens, UniProt Q9P286)
# Chain of PAK5 (Q9P286 whole entry): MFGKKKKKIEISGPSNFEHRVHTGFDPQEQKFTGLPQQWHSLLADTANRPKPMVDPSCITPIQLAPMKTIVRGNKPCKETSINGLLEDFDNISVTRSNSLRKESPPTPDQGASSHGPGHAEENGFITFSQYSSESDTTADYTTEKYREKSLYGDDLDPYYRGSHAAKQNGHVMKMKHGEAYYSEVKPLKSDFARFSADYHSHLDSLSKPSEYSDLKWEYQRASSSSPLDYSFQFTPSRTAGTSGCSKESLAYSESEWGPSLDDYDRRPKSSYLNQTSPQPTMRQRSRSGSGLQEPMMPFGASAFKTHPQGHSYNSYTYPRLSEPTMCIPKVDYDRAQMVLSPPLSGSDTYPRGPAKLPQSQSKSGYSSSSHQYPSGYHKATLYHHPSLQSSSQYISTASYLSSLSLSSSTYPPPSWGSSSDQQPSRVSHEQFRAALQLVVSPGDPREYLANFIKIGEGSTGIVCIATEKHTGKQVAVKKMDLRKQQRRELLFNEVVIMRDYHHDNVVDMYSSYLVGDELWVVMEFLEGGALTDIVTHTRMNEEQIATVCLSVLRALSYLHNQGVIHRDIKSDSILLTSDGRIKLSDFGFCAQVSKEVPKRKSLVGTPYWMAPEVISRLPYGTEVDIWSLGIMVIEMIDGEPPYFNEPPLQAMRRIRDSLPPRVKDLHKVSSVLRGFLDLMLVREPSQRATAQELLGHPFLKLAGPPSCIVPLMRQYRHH
# [9] = target: CK1γ1 (Homo sapiens, UniProt Q9HCP0)
# Chain of CK1γ1 (Q9HCP0 whole entry): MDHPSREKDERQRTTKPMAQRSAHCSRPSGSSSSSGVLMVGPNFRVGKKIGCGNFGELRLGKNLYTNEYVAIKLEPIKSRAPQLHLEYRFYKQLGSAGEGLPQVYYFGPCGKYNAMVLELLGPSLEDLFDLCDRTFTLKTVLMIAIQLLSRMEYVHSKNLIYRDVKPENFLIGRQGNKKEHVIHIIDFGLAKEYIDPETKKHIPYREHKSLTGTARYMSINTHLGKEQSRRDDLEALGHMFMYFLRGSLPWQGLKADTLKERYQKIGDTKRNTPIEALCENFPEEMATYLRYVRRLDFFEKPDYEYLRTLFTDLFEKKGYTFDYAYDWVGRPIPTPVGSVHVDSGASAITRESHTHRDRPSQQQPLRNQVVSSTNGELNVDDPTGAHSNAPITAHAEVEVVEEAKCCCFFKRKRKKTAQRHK
# [10] = target: T2, PhKγ2 (Homo sapiens, UniProt P15735)
# T2 sequence (P15735 1-406): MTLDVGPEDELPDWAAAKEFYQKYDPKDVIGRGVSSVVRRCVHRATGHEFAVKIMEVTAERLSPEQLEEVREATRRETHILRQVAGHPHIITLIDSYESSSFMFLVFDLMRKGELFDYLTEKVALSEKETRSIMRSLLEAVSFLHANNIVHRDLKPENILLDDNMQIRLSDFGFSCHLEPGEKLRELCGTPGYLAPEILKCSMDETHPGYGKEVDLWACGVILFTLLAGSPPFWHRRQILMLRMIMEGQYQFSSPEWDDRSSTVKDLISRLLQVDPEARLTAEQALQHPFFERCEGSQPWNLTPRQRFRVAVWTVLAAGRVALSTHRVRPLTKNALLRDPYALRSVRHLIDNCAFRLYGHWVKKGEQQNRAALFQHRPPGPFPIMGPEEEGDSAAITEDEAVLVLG
smiles,measurement,setting,value
"COc1cc(O)c(CC=C(C)C)c(O)c1C(=O)/C=C/c1ccc(O)cc1 [Xanthohumol, xanthohumol]","Kinase activity, % of Control",[1]; 25 ug/ml,24 % of Control
same,"Kinase activity, % of Control",[1]; 50 ug/ml,87 % of Control
same,"Kinase activity, % of Control",[2]; 1 ug/ml,103 % of Control
same,"Kinase activity, % of Control",[2]; 5 ug/ml,92 % of Control
same,"Kinase activity, % of Control",[2]; 25 ug/ml,29 % of Control
same,"Kinase activity, % of Control",[2]; 50 ug/ml,19 % of Control
same,"Kinase activity, % of Control",[3]; 1 ug/ml,131 % of Control
same,"Kinase activity, % of Control",[3]; 5 ug/ml,106 % of Control
same,"Kinase activity, % of Control",[3]; 25 ug/ml,102 % of Control
same,"Kinase activity, % of Control",[3]; 50 ug/ml,26 % of Control
same,"Kinase activity, % of Control",[4]; 1 ug/ml,97 % of Control
same,"Kinase activity, % of Control",[4]; 5 ug/ml,40 % of Control
same,"Kinase activity, % of Control",[4]; 25 ug/ml,4 % of Control
same,"Kinase activity, % of Control",[4]; 50 ug/ml,2 % of Control
same,"Kinase activity, % of Control",[5]; 1 ug/ml,42 % of Control
same,"Kinase activity, % of Control",[5]; 5 ug/ml,10 % of Control
same,"Kinase activity, % of Control",[5]; 25 ug/ml,5 % of Control
same,"Kinase activity, % of Control",[5]; 50 ug/ml,7 % of Control
same,"Kinase activity, % of Control",[6]; 1 ug/ml,104 % of Control
same,"Kinase activity, % of Control",[6]; 5 ug/ml,48 % of Control
same,"Kinase activity, % of Control",[6]; 25 ug/ml,14 % of Control
same,"Kinase activity, % of Control",[6]; 50 ug/ml,6 % of Control
same,"Kinase activity, % of Control",[7]; 1 ug/ml,135 % of Control
same,"Kinase activity, % of Control",[7]; 5 ug/ml,127 % of Control
same,"Kinase activity, % of Control",[7]; 25 ug/ml,60 % of Control
same,"Kinase activity, % of Control",[7]; 50 ug/ml,69 % of Control
same,"Kinase activity, % of Control",[8]; 1 ug/ml,106 % of Control
same,"Kinase activity, % of Control",[8]; 5 ug/ml,99 % of Control
same,"Kinase activity, % of Control",[8]; 25 ug/ml,42 % of Control
same,"Kinase activity, % of Control",[8]; 50 ug/ml,5 % of Control
same,"Kinase activity, % of Control",[9]; 1 ug/ml,101 % of Control
same,"Kinase activity, % of Control",[9]; 5 ug/ml,79 % of Control
same,"Kinase activity, % of Control",[9]; 25 ug/ml,50 % of Control
same,"Kinase activity, % of Control",[9]; 50 ug/ml,26 % of Control
same,"Kinase activity, % of Control",[10]; 1 ug/ml,106 % of Control
same,"Kinase activity, % of Control",[10]; 5 ug/ml,60 % of Control
same,"Kinase activity, % of Control",[10]; 25 ug/ml,11 % of Control
same,"Kinase activity, % of Control",[10]; 50 ug/ml,5 % of Control
